The values below come from patent publication US20040247586A1, “Parkin-associated complex for protecting post-mitotic neurons from excitotoxicity and uses thereof” (priority 2003, published 2004).

Format in all cases: cell-based, mouse
Assay [1] deals with cerebellar granule cells from P6 mice. Nature of the assay: parkin overexpression in kainate-treated cerebellar granule cells, cyclin E by Western blot / immunofluorescence / RT-PCR. The note with it: kainate 500 μM for 24 h. How it is done:
Cerebellar granule cells from post-natal day 6 (P6) mice were transfected in suspension with a bicistronic expression plasmid for wild-type parkin (along with GFP) or with vector (GFP alone), cultured at a density of 75,000 cells/cm^2 for 72 h, and then treated with or without 500 μM kainate for 24 h. (A) Cells were extracted directly with loading buffer, and lysates were analyzed by Western blotting, as indicated. (B-M) Granule cell cultures were fixed, stained with a specific antibody against cyclin E, and then visualized by fluorescence microscopy for cyclin E (red) and GFP (green). […]
Cerebellar granule neurons from P6 mice were purified and transfected essentially as described (Scheiffele et al., Neuroligin expressed in nonneuronal cells triggers presynaptic development in contacting axons. Cell, 101:657-69, 2000). […] Cells were treated for 24 h with or without kainate (250 or 500 μM as indicated; Sigma) or MPP^+ (1 or 10 μM as indicated; Sigma), stained for 20 min with 0.5 μg/ml Hoechst 33342 (Sigma), and visualized by fluorescence microscopy. For granule cell assays, at least 100 cells in two 20× fields were scored in duplicate for GFP and/or Hoechst signal. […] Cells were washed, incubated for 1 h at room temperature with appropriately-labeled secondary antibodies, and visualized by fluorescence microscopy. […]

For assay [2], the system named is E13.5 primary culture midbrain dopamine neurons. The assay can be described thus: parkin siRNA knockdown in primary midbrain dopamine neuron cultures with kainate or MPP+, immunofluorescence and Hoechst. As to the method: Dissociated midbrain cultures from El 3.5 mice were prepared as described (see Examples), transfected with 25 nM parkin or control (SERT) siRNA, and treated for 24 h with 250 μM kainate (A-X) or 1 μM MPP^+ (U—X). Cells were treated with Hoechst dye, fixed, and stained with rabbit polyclonal antibodies against either mouse parkin or cyclin E (green) and a rat monoclonal antibody against DAT (red). Immunostaining and apoptotic nuclei were visualized by fluorescence microscopy. Arrows point to examples of DAT-positive, cyclin-E-positive neurons (S) and DAT-positive neurons with apoptotic (Hoechst-positive) nuclei (I, J, and T). Total DAT-specific immunoreactivity (pixels), across 9 fields of view at 20×, was quantified in triplicate using Image software (Scion). Cytoplasmic parkin and cyclin E immunoreactivity (mean pixel density), in DAT-positive neurons, were similarly quantified. Data are shown as the mean±SEM. Statistical significance was assessed using one-way ANOVA with Tukey-Kramer post-hoc tests between each group. *=p<0.01; scale bar=150 μm
FIG. 10 further illustrates parkin/cyclin E interaction. […] Total RNA was extracted from granule cell cultures transfected with parkin or vector alone (see FIG. 5), and from frontal cortex tissue from parkin-deficient ARPD (or age-matched control; see FIG. 4). Cyclin E and β-actin mRNA levels were determined by quantitative RT-PCR, as described (Troy et al., Death in the balance: alternative participation of the caspase-2 and -9 pathways in neuronal death induced by nerve growth factor deprivation. J. Neurosci., 21:5007-16, 2001). (B-D) Both cyclin E immunoreactivity (p<0.05) and apoptosis (p<0.05) are increased in DAT-negative neurons of primary midbrain cultures treated with parkin siRNA (and kainate) relative to control siRNA (and kainate). However, the increased cyclin E immunoreactivity and apoptosis are both less marked than in DAT-positive neurons (p<0.05 for both measures). DAT-negative neurons in midbrain cultures were analyzed as in FIG. 7; DAT-positive neuron data is from FIG. 7. Cytoplasmic parkin and cyclin E immunoreactivity (mean pixel density) in DAT-negative neurons were quantified in triplicate, across 9 fields of view at 20×. Data are shown as the mean±SEM. Statistical significance was assessed using one-way ANOVA with Tukey-Kramer post-hoc tests between each group. *=p<0.01; **=p<0.05; scale bar=150 μm (E-J) Human parkin lentiviral vectors efficiently infect cultured murine midbrain dopamine neurons. E13.5 murine midbrain cultures were infected with lentiviruses encoding human parkin or control (GFP), as described in FIG. 8.
Cerebellar granule neurons from P6 mice were purified and transfected essentially as described (Scheiffele et al., Neuroligin expressed in nonneuronal cells triggers presynaptic development in contacting axons. Cell, 101:657-69, 2000). Dissociated cortical neurons from E16.5 mice were prepared and cultured as described (Scheiffele et al., Neuroligin expressed in nonneuronal cells triggers presynaptic development in contacting axons. Cell, 10 1:657-69, 2000). Primary midbrain cultures were prepared from E13.5 mouse embryos, as described (Hynes et al., Induction of midbrain dopaminergic neurons by Sonic hedgehog. Neuron, 15:35-44, 1995). Cells were treated for 24 h with or without kainate (250 or 500 μM as indicated; Sigma) or MPP^+ (1 or 10 μM as indicated; Sigma), stained for 20 min with 0.5 μg/ml Hoechst 33342 (Sigma), and visualized by fluorescence microscopy. For granule cell assays, at least 100 cells in two 20× fields were scored in duplicate for GFP and/or Hoechst signal. For immunohistochemistry, cell cultures were washed twice with PBS, and fixed for 20 min with 4% (w/v) paraformaldehyde. Cells were blocked for 1 h, at room temperature, with 3% (v/v) goat serum in PBS, and then incubated overnight, at 4° C., with specific antibodies, as indicated. […]

The subject of assay [3] is dissociated cortical neurons from E16.5 mice. Nature of the assay: parkin siRNA knockdown in kainate-treated primary cortical cultures, Western blot. Conditions: 25 nM siRNA, then 500 μM kainate 24 h. How it is done: (A) Insect cells were co-infected with baculoviruses expressing Flag-hSel-10 (110 kDa) or Flag-β-TrCP, GST-parkin, HA-CDK2, and either His6-cyclin E or His6-cyclin A1 (50 kDa). Cyclin-E- or cyclin-A1-associated complexes were isolated from cell lysates by nickel-agarose pull-downs, and analyzed by Western blotting, as indicated. (B) Flag-parkin-associated complexes (immunoprecipitated from HeLa cells transfected with Flag-tagged wild-type or T240R mutant parkin) were incubated with recombinant His6-cyclin E, HA-CDK2, E1, UbcH7, and ubiquitin, in the presence of an ATP-regenerating system. Recombinant His6-cyclin E generated in insect cells appears as a 51 -kDa band (arrow) and a minor contaminating species at 95-kDa. The asterisk indicates the position of an immunoglobulin heavy chain. (C) Parkin deficiency leads to cyclin E accumulation. Dissociated cortical neurons from E16.5 mice were cultured as described (see Examples), transfected with 25 nM parkin siRNA or control (DAT) siRNA, and then treated for 24 h with 500 μM kainate. […]
Cerebellar granule neurons from P6 mice were purified and transfected essentially as described (Scheiffele et al., Neuroligin expressed in nonneuronal cells triggers presynaptic development in contacting axons. Cell, 101:657-69, 2000). […] Cells were treated for 24 h with or without kainate (250 or 500 μM as indicated; Sigma) or MPP^+ (1 or 10 μM as indicated; Sigma), stained for 20 min with 0.5 μg/ml Hoechst 33342 (Sigma), and visualized by fluorescence microscopy. For granule cell assays, at least 100 cells in two 20× fields were scored in duplicate for GFP and/or Hoechst signal. […] Cells were washed, incubated for 1 h at room temperature with appropriately-labeled secondary antibodies, and visualized by fluorescence microscopy. For midbrain culture experiments, DAT-specific immunoreactivity (pixels), and cytoplasmic parkin and cyclin E immunoreactivity (mean pixel density), were quantified in triplicate, across nine fields of view, at 20× using Image software (Scion). […]

For `C=C(C)[C@H]1CN[C@H](C(=O)O)[C@H]1CC(=O)O` [kainate, kainic acid], the “cyclin E accumulation in granule cell cultures after toxin” value in assay [1] is reported as “led to the accumulation of cyclin E”.
For “5′ UUCCAAACCGG AUGAGUGGdTdT 3′ [parkin siRNA]”, the “cyclin E accumulation in DAT-positive neurons” value in assay [2] (25 nM siRNA, 250 μM kainate 24 h, vs control (SERT) siRNA) is “increased accumulation of cyclin E”. Moreover, in assay [2] (25 nM siRNA, 250 μM kainate 24 h, vs control siRNA), the “apoptosis of DAT-positive neurons (Hoechst)” value is “increased apoptosis”. For the same compound, in assay [2] (25 nM siRNA, in the presence of kainate, vs control siRNA), the “DAT immunoreactivity in cell bodies and processes” value is “decreased DAT immunoreactivity”. In addition, the “kainate sensitivity of DAT-negative neurons (cyclin E induction and apoptosis)” value in assay [2] (DAT-negative (primarily GABAergic) neurons vs DAT-positive population, p<0.05) is on record as “did sensitize DAT-negative neurons to kainate toxicity, but to a significantly lesser extent”. Also, in assay [2] (MPP+ 10 μM), the “dopamine neuron sensitivity to MPP+” value is listed as “failed to alter dopamine neuron sensitivity”. Further, the “cyclin E or DAT immunoreactivity, siRNA alone” value in assay [2] (in the absence of kainate) was “failed to alter cyclin E or DAT immunoreactivity”. The “cleaved-PARP, marker of apoptosis (Western blot)” value in assay [3] is “accumulation of cleaved poly (ADP-ribose) polymerase”. In addition, in assay [3] (vs control (DAT) siRNA), the “cyclin E accumulation (Western blot)” value is listed as “increased accumulation of cyclin E” and the “parkin protein expression (Western blot)” value was “significantly reduced parkin expression”.
Regarding `C[n+]1ccc(-c2ccccc2)cc1` [MPP^+, 1-Methyl-4-phenylpyridinium, reference compound], the “DAT immunoreactivity after toxin” value in assay [2] (MPP+ 10 μM, control siRNA-treated cultures) is listed as “led to a reduction in DAT immunoreactivity comparable to the kainate treatment”.
